Source: article PMC10650486, “Fluoroquinolone-Based Organic Salts (GUMBOS) with Antibacterial Potential” (International Journal of Molecular Sciences, 2023)
Counter-ions that a name gives are not always drawn. Like-named read-outs stand apart in the source and are kept apart here.

What was measured:
[1] = Thermogravimetric analysis (TGA), thermal stability; type: physicochemical; details: for Tonset / Tpeak / Tstart: 10 °C min^−1, N2 atmosphere; for Residue at 500 °C: mass residue remaining at 500 °C; for Tpeak: temperature at highest degradation rate; for Tstart: temperature where weight loss starts
Description: Thermogravimetric analysis (TGA) was executed using a Hi-Res modulated TGA 2950 thermogravimetric analyzer (TA Instruments, New Castle, DE, USA) and curves were obtained for all GUMBOS. Approximately 1-3 mg of GUMBOS was placed in a platinum pan and heated from 25 °C to 575 °C at a slow heating rate of 10 °C min^-1. Some characteristic parameters were extrapolated. For DSC and TGA, onset temperatures (Tonset) were determined as the temperature value matching the intersection point of the extrapolated initial baseline and the tangent or line through the linear section of the leading edge of the Tpeak point where the Tpeak was the temperature value at the highest degradation rate. For TGA, additional data were collected such as the temperature value where weight loss starts ([…]), and the percentage of mass residue remaining at 500 °C which allows evaluation of the short-term stability. All these parameters were extrapolated using the software NETZSCH Proteus® version 6.1081 (Netzsch-Gerätebau GmbH, Selb, Germany) for DSC analysis and Universal Analysis 2000 version 4.5A (TA Instruments-Waters LLC, New Castle, DE, USA) for TGA analysis.

[2] = tested on: Staphylococcus aureus subsp. aureus Rosenbach ATCC 25923; test: Antibacterial susceptibility testing, broth microdilution, bacterial growth by absorbance at 630 nm; type: cell-based
Description: To evaluate the antimicrobial profile, a study was performed using the broth microdilution standard method with minor modifications using DMSO as solvent. Standard laboratory strains of Gram-positive Staphylococcus aureus subsp. aureus Rosenbach ATCC 25923 and Gram-negative Escherichia coli O157:H7 were studied. TSB was used as the culture medium for bacteria and samples with bacteria in media were considered positive controls.
Antibacterial activity of GUMBOS was evaluated by comparing it with negative controls, as well as with the antibacterial activity of the parent compounds, [Cip][HCl] and [Mox][HCl]. […] These values are determined through laboratory testing and can vary depending on the testing methodology and conditions, thus the range increase in this study to 25 mg·L^−1. Stock solutions were prepared using water for water-soluble compounds while non-water soluble compounds were reconstituted using a deionized water solution containing 5% DMSO [96]. Following that, the compounds were diluted using fresh tryptic soy broth (TSB) to achieve desired concentrations. Initially, agar media was used to grow additional bacteria to correlate absorbance readings to microbial counts. Then, a solution of 0.1 mL of S. aureus added to 10 mL of TSB was incubated at 37 °C for 24 h and repeated for three more days until enough bacteria was obtained. After centrifugation and washing steps with PBS (1×) solution until obtaining a homogenized pellet, the inoculum was then diluted to 0.06 absorbance at 630 nm or 0.5 McFarland [97]. After compounds were diluted in TSB, 100 μL of samples with 100 μL of S. aureus inoculum were then transferred to a 96-well flat bottom microtitre plate (TPP, Switzerland) which was sealed and left in incubation at 37 °C for 24 h. Absorbance was read at 630 nm with a BioTek universal microplate reader (Agilent Technologies, VT, USA) to determine the turbidity in the wells [97, 98]. Three wells were prepared per sample. To ensure the viability and growth of bacteria in the culture media, negative controls were conducted along with a positive culture using the media containing only the bacteria. [Cip][HCl] served as the reference antibacterial agent.

[3] = TGA, parent compound; cited from earlier work
[4] = Octanol/water partition coefficient, shake-flask method; type: physicochemical; details: for logKO/W ± SD: octanol/water, shake-flask, mean ± standard deviation
Description: Following synthesis and structural characterization of FQ-based GUMBOS, octanol/water partition coefficient (Ko/w) values were obtained through a shake-flask method with minor modifications. Initially, water and 1-octanol were saturated by agitation for 24 h at room temperature. GUMBOS were solubilized in 5 mL of water-saturated octanol (Ci), to which an equivalent volume of octanol-saturated water was added. This solution subjected to 24 h of agitation and the absorbance of the upper layer was measured at a wavelength of 280 nm. Sample concentration in octanol (Co) was determined through a calibration curve, which was created using six solutions of different concentrations (4–30 μmol·L^−1) of GUMBOS in 1-octanol. Later, GUMBOS concentration in water (Cw) were obtained by the following equation Ci − C0 = Cw. Octanol/water partition coefficient (Ko/w) values were then calculated using Ko/w = Co/Cw. Data were representative of three replicates executed for each of the GUMBOS.

[5] = 0.25 mg·L^−1, 24 h exposure, Figure 4a
[6] = 25 mg·L^−1, 24 h exposure, Figure 4b

Row | Compound | Tonset [1] | Residue at 500 °C [1] | Tpeak [1] | Tstart [1] | antibacterial performance (bacterial growth) against S. aureus [2, 5] | antibacterial performance (bacterial growth) against S. aureus [2, 6] | Tonset [3] | Tpeak [3] | Tstart [3] | logKO/W ± SD [4] | relative hydrophobicity from log KO/W ([4]; ranking within the [Cip]-based or [Mox]-based GUMBOS)
1 | COc1c(N2C[C@@H]3CCC[NH2+][C@@H]3C2)c(F)cc2c(=O)c(C(=O)O)cn(C3CC3)c12.c1ccc([B-](c2ccccc2)(c2ccccc2)c2ccccc2)cc1 [[Mox][TPB]] | 176.37 °C | 42.13% | 177.21 °C | 144.02 °C | activities closer to their precursor | significant differences from their corresponding precursors |  |  |  |  | 
2 | COc1c(N2C[C@@H]3CCCN[C@@H]3C2)c(F)cc2c(=O)c(C(=O)O)cn(C3CC3)c12 [[Mox][HCl], moxifloxacin hydrochloride monohydrate] |  |  |  |  |  |  | 240 °C | 260 °C | 220 °C |  | 
3 | O=C(O)c1cn(C2CC2)c2cc(N3CCNCC3)c(F)cc2c1=O.O=S(=O)(NS(=O)(=O)C(F)(F)C(F)(F)F)C(F)(F)C(F)(F)F [[Cip][BETI]] | 284.61 °C | 35.43% | 294.04 °C | 266.25 °C |  |  |  |  |  | −0.314 ± 0.094 | 
4 | O=C(O)c1cn(C2CC2)c2cc(N3CCNCC3)c(F)cc2c1=O [[Cip][HCl], Ciprofloxacin hydrochloride monohydrate] |  |  |  |  |  |  | 300 °C | 318 °C | 150 °C |  | 
5 | CCCCC(CC)COC(=O)CC(C(=O)OCC(CC)CCCC)S(=O)(=O)O.O=C(O)c1cn(C2CC2)c2cc(N3CCNCC3)c(F)cc2c1=O (stereo not shown) [[Cip][Doc]] | 286.49 °C | 24.26% | 286.64 °C | 252.18 °C |  |  |  |  |  | 0.162 ± 0.015 | most hydrophobic
6 | COc1c(N2C[C@@H]3CCCN[C@@H]3C2)c(F)cc2c(=O)c(C(=O)O)cn(C3CC3)c12.C[C@H](CCC(=O)O)[C@H]1CC[C@H]2[C@@H]3CC[C@@H]4C[C@H](O)CC[C@]4(C)[C@H]3C[C@H](O)[C@]12C [[Mox][Dxc]] | 275.22 °C | 15.60% | 284.97 °C | 208.92 °C |  |  |  |  |  |  | 
7 | COc1c(N2C[C@@H]3CCCN[C@@H]3C2)c(F)cc2c(=O)c(C(=O)O)cn(C3CC3)c12.O=S(=O)(NS(=O)(=O)C(F)(F)C(F)(F)F)C(F)(F)C(F)(F)F [[Mox][BETI]] | 307.46 °C | 32.31% | 322.97 °C | 266.98 °C |  |  |  |  |  |  | 
8 | O=C(O)c1cn(C2CC2)c2cc(N3CCNCC3)c(F)cc2c1=O.O=S(=O)(NS(=O)(=O)C(F)(F)F)C(F)(F)F [[Cip][NTF2]] | 287.79 °C | 39.88% | 295.18 °C | 263.57 °C | activities closer to their precursor |  |  |  |  | 0.145 ± 0.075 | 
9 | CCCCC(CC)COC(=O)CC(C(=O)OCC(CC)CCCC)S(=O)(=O)O.COc1c(N2C[C@@H]3CCCN[C@@H]3C2)c(F)cc2c(=O)c(C(=O)O)cn(C3CC3)c12 [[Mox][Doc]] | 271.04 °C | 33.55% | 275.90 °C | 249.91 °C | activities closer to their precursor | significant differences from their corresponding precursors |  |  |  |  | 
